Reference: patent publication US4866068A, “Novel HMG-CoA reductase inhibitors” (Merck & Co., Inc., priority 1988, dated 1989)

System: HMG-CoA reductase
Test: in vitro HMG-CoA reductase inhibition, relative potency versus compactin
Assay type: biochemical
Settings: compactin (mevastatin) assigned a value of 100; IC50 of test compound compared with that of compactin determined simultaneously
Procedure: The intrinsic HMG-CoA reductase inhibition activity of the claimed compounds is measured in the in vitro protocol published in J. Med. Chem., 28, p. 347-358 (1985).
For estimation of relative inhibitory potencies, compactin (i.e., mevastatin) was assigned a value of 100 and the IC50 value of the test compound was compared with that of compactin determined simultaneously in the published in vitro protocol.

relative potency (intrinsic HMG-CoA reductase inhibitory activity) | SMILES
112 | C[C@H]1C=C2C=C[C@H](C)[C@H](CC[C@@H]3C[C@@H](O)CC(=O)O3)[C@H]2[C@@H](OC(=O)C(C)(C)Sc2ccncc2)C1 [Example 1, 6R-[2-[8(S)[2-methyl-2-(4-pyridinylthio)propionyloxy]-2(S), 6(R)-dimethyl-1,2,6,7,8,8a(R)-hexahydronaphthyl-1(S)]ethyl]-4(R)-hydroxy-3,4,5,6-tetrahydro-2H-pyran-2-one]
100 | C[C@H]1C=C2C=C[C@H](C)[C@H](CC[C@@H]3C[C@@H](O)CC(=O)O3)[C@H]2[C@@H](OC(=O)C(C)(C)Sc2nc3ccccc3s2)C1 [Example 2]
